Key:
[1] = mouse, in vivo
Method: In experiments shown in FIG. 23, pharmacokinetics of Mesd peptide and Mesd were examined. FIG. 23A: Amount of Mesd in serum following a single dose of protein administration. Mice were dosed at 5, 10, 20 mg/kg of Mesd via i.p. and the serum samples were collected from individual mice at the indicated time points. The levels of Mesd in serum were quantified by comparison to Mesd pure protein with known concentrations in Western blot analysis. Values are the average of triple determinations with S.D. indicated by error bars. […] Samples were obtained by terminal bleed under anesthesia at each of the indicated time points (N=3 animals per time point). Radioactivity was measured using a gamma counter and DPM converted to mass units/mL blood using the specific activity (DPM/mass) of each test substance. Data are plotted as mass U/mL of test substance with standard deviation indicated by error bars.

[2] = system: MMTV-Wnt1 tumors; test: MMTV-Wnt1 tumor transplant growth in nude mice; type: in vivo; conditions: i.p. every other day, first dose 15 mg/kg then 10 mg/kg, three weeks
Method: Recombinant Mesd protein was prepared as described (Li Y, et al. (2005) J Cell Sci 118(22): 5305-5314). Mesd peptide, […] (SEQ ID NO: 14), was manufactured by Abgent (San Diego). Female athymic nude mice (Taconic) (6-8 weeks old) were used for passaging tumors from MMTV-Wnt1 mice (Taconic). MMTV-Wnt1 tumors were serially passaged in mice by implantation in the mammary fat pad as described (DeAlmeida V, et al. (2007) Cancer Res 67, 5371-5379). Therapeutic agents (200 μL Mesd protein, Mesd peptide or PBS) were administrated i.p. with a first dose of 15 mg/kg, followed by 10 mg/kg (9 more doses). Three groups of mice were treated every other day for three weeks and tumor volumes were measured thrice weekly.
The pharmacokinetics and bioavailability of Mesd and Mesd peptide ([…] (SEQ ID NO: 14)) were first investigated (FIG. 23). Cells from MMTV-Wnt1 tumors were injected into the mammary fat pads of female nude mice, and the resultant mice were subsequently randomly grouped when the mean tumor volume reached ca. 200 mm^3. […]
In these experiments, mice bearing established MMTV-Wnt1 tumor transplants were divided into three groups (five animals per group) and were i.p. injected with PBS (vehicle), Mesd, or Mesd peptide every other day. Tumor volume was analyzed using caliper measurement. […]

[3] = mouse, in vivo; remark: listed apart in the source
Method: Hemotoxylin and eosin (H&E) staining was performed on tumor xenograft tissue, skin and intestine harvested at the end of Mesd treatment.
FIG. 24D: H&E staining of tail vertebrae treated with PBS, Mesd or Mesd peptide.

[4] = system: Wnt signaling; test: Wnt signaling in MMTV-Wnt1 tumors (GST-E-cadherin pull-down, c-Myc expression); type: in vivo, mice; conditions: GST-E-cadherin pull-down and c-Myc expression
Method: The GST-E-cadherin pulldown assay was performed as previously described (2). Cells expressing control or LRP6 shRNA were treated with L cells or Wnt3a-conditioned media (CM) for 4 h. Free β-catenin was determined using a GST-E-cadherin pull-down assay. Cells were lysed for 30 minutes at 4° C. Protein concentrations in lysates were quantified, and equal quantities of total proteins from different samples were incubated with GST-E-cadherin Sepharose beads for 4 h at 4° C. After incubation, the beads were washed three times and the bound proteins were eluted and separated via SDS-PAGE. Western blotting was performed using antibody to β-catenin.
In these experiments, mice bearing established MMTV-Wnt1 tumor transplants were divided into three groups (five animals per group) and were i.p. injected with PBS (vehicle), Mesd, or Mesd peptide every other day. Tumor volume was analyzed using caliper measurement. Data represent at least three independent experiments and each time point represents the mean tumor volume±SEM. *p<0.05; **p<0.01. […] Scale bar=50 μm.

[5] = system: HCC1187 cells; test: MTT assay of Wnt3a CM-stimulated growth of HCC1187 cells; type: cell-based, human; conditions: Dkk1 10 nM, 24 h
Method: Cell growth and cell proliferation were measured by MTT assay (Promega) and BrdU incorporation using the BrdU ELISA kit (Roche Molecular Systems) according to the manufacturers' instructions. […] Breast cancer cells expressing control or LRP6 shRNA were seeded into 48-well plates. MTT-labeling reagent was added to each well 24 h later, and plates were incubated at 37° C. for 4 h. After the incubation period, the formazan crystals were dissolved in an MTT solubilization reagent and the resulting color was quantified spectrophotometrically. In some experiments, cell proliferation was measured by BrdU incorporation using the BrdU ELISA kit (Roche Molecular Systems) according to the manufacturer's instructions. Briefly, cancer cells expressing control or LRP6 shRNA were plated on 96-well plate. Cells were incubated with BrdU for 24 h, and the newly synthesized BrdU-DNA was then determined by colorimetry using an ELISA reader. All experiments were performed three times in triplicate.
In FIG. 20, * indicates p<0.05 compared to L cell CM; ** indicates p<0.01 compared to L cell CM.

[6] = system: Wnt signaling; test: TCF/LEF-luc reporter assay in Wnt-3A-treated HEK293 cells; type: cell-based; conditions: Wnt3A conditioned medium plus Dkk1 at 10 nM, 16 hours at 37° C.
Method: HEK293 cells were plated into six-well plates. For each well, 0.1 μg of the TOP-FLASHTCF luciferase construct (Upstate Biotechnology) was cotransfected with 0.8 μg Mesd-expressing vector, 0.8 μg Mesd mutant-expressing vector, or empty vector. A β-galactosidase-expressing vector (Promega, Madison, Wis.) was included as an internal control for transfection efficiency. After 48 hours, cells were lysed and both luciferase and β-galactosidase activities were determined with enzyme assay kits (Promega). The luciferase activity was determined with a luminometer using the Dual Luciferase Assay system (Promega). Luciferase activity was normalized to the activity of the β-galactosidase.
In these experiments, transfected cells were treated without Wnt-3A or with Wnt-3A plus the indicated inhibitors (Mesd and/or Dkk1) for 16 hours at 37° C. Wnt signaling was measured by quantifying the luciferase activity using a live cell imaging system.

KGGGSKEKNKTKQDKGKKKKEGDLKSRSSKEENRAGNK [Mesd peptide]
Bioavailability [1]: 60% | Distribution into tissues [1]: rapid and widespread | Tumor growth (tumor volume, caliper) [2]: significantly inhibit tumor growth | Adverse effect on small intestine (gross examination) [3]: no significant adverse effect | Architecture of gastrointestinal compartments and skin (H&E) [3]: morphologically normal | Bone lesions or outgrowths in tail vertebrae [3]: no significant bone lesions or outgrowths | General health and body weight of treated mice [3]: grossly healthy and maintain their weights | Wnt signaling in tumors compared to control treatment [4]: decreased Wnt signaling

B1: Dkk1: Human recombinant DKK1 protein, LRP6-specific ligand and antagonist (protein)
chain: TLNSVLNSNAIKNLPPPLGGAAGHPGSAVSAAPGILYPGGNKYQTIDNYQPYPCAEDEECGTDEYCASPTRGGDAGVQICLACRKRRKRCMRHAMCCPGNYCKNGICVSSDQNHFRGEIEETITESFGNDHSTLDGYSRRTTLSSKMYHTKGQEGSVCLRSSDCASGLCCARHFWSKICKPVLKEGQVCTKHRRKGSHGLEIFQRCYCGEGLSCRIQKDHHQASNSSRLHTCQRH
Effect on Wnt3a CM-increased cell growth [5]: abolished | Inhibition of Wnt signaling (luciferase activity) [6]: more potent inhibitor
